Literature values in publication PMC4617652 (Journal of the American Chemical Society, 2015).
Read-outs that look alike come from different tables or passages of the source. Blank lines part the entries; values can stand above or below the compound they belong to.

pKBH+ of reference base (MeCN ref 24): 24.34
SMILES: C1CCC2=NCCCN2CC1 [DBU]

pKBH+ of reference base (MeCN ref 19): 28.35
SMILES: CC(C)(C)N=P(N1CCCC1)(N1CCCC1)N1CCCC1 [P1-tBu(pyrr)3]

SMILES: CCN=P(N=P(N(C)C)(N(C)C)N(C)C)(N(C)C)N(C)C [P2-Et]
pKBH+ of reference base (MeCN ref 6c): 32.94
